In publication PMC11472310, “Distinctive Immune Signatures Driven by Structural Alterations in Desmuramylpeptide NOD2 Agonists” (Journal of Medicinal Chemistry, 2024):
Converted amounts (≈) assume the structure as drawn.

Key:
[1] = Kinetic solubility (method of Hoelke et al.); assay type: physicochemical
Source text: Park et al. have shown that the degree of saturation of fatty acids exerts a profound impact on permeability of fatty acylated peptides—a higher degree of unsaturation results in higher permeability.[43] PUFA can also induce significant biophysical perturbations upon incorporation into membrane phospholipids.[67],[68] […] Given that the hydrophobicity of fatty acyl residues in general reduces as the number of unsaturated sites increases,[69],[70] we decided to ascertain how such structural modifications translate to the kinetic solubility of the molecule as a whole. […] The acylation with PUFA thus provides an elegant, albeit counterintuitive, approach, by which permeability of the molecule as a whole as well as its capacity for liposomal encapsulation can be enhanced without completely abolishing its aqueous solubility.

[2] = system: BMDC/T-cell cocultures; test: T cell cytokine release in BMDC/T-cell cocultures; assay type: cell-based, C57BL/6 mouse; conditions: 10 μM; for levels of IL-6 and TNF-α secreted by CD4+ T cells: 72 h coculture
Experimental: For this study, we narrowed down the selection of suitable desmuramylpeptides even further. In order to assess the adjuvant potential of selected desmuramylpeptides with regard to their effect on DC-mediated activation of CD4^+ and CD8^+ T cells, we conducted an ex vivo antigen-presentation assay utilizing C57BL/6 mouse bone marrow-derived DCs (BMDCs). Upon stimulation with desmuramylpeptides at 10 μM, in conjunction with ovalbumin soluble protein (50 μg/mL), BMDCs were cocultured with carboxyfluorescein succinimidyl ester (CFSE)-labeled naïve ovalbumin-specific CD4^+ or CD8^+ T cells, which were isolated from splenocytes of OT II and OT I transgenic mice, respectively. […] Additionally, we investigated how the priming of T cells elicited by the tested compounds impacted the cytokine profiles secreted in BMDC/T-cell cocultures.
Following 72 h of coincubation with BMDCs (pretreated with desmuramylpeptides [10 μM] and washed), supernatants from CD4^+ and CD8^+ T cells were harvested as previously described. […] Standard curves were constructed using recombinant cytokines provided in the kit. Data analysis was conducted using FlowJo (Tree Star, Inc., Ashland, OR, USA) and Prism (GraphPad, San Diego, CA, USA) software. Each experiment was performed in duplicate and replicated in two independent biological runs.

| solubility kinetic [1] [µM] | diminished solubility compared to parent compound 1 ([1]; kinetic solubility) [factor] | Compound | levels of IL-6 and TNF-α secreted by CD4+ T cells [2] | stimulating IL-2 and IL-9 production ([2]; CD4+ T cell coculture, 72 h) | production of the Th9-associated cytokine IL-9 ([2]; CD4+ T cell coculture, 72 h) |
| --- | --- | --- | --- | --- | --- |
| 178 (≈ 108 µg/mL) |  | CCCC(=O)Oc1ccc(/C=C/C(=O)NCC(=O)N[C@H](C(=O)N[C@H](CCC(=O)OCC)C(=O)OCC)C(C)C)cc1OC [Compound 3, Diethyl ((E)-3-(4-(Butyryloxy)-3-methoxyphenyl)acryloyl)glycyl-L-valyl-D-glutamate] | slightly increased | most notable |  |
| 105 (≈ 86.1 µg/mL) | 4 | CC/C=C\C/C=C\C/C=C\C/C=C\C/C=C\CCCC(=O)Oc1ccc(/C=C/C(=O)NCC(=O)N[C@H](C(=O)N[C@H](CCC(=O)OCC)C(=O)OCC)C(C)C)cc1OC [Compound 23, Diethyl ((E)-3-(4-(((5Z,8Z,11Z,14Z,17Z)-Icosa-5,8,11,14,17-pentaenoyl)oxy)-3-methoxyphenyl)acryloyl)glycyl-L-valyl-D-glutamate] | slightly increased | most notable | augmented |
